Assay results published in patent publication US11491105B2, “Methods of treating microbial infections, including mastitis” (priority 2013, dated 2022).
Converted amounts (≈) assume the structure as drawn.

Key:
[1] = tested on: Staphylococcus isolates (methicillin-sensitive and methicillin-resistant); assay: Minimum inhibitory concentration assay (Example 1); assay type: cell-based; details: for MIC50 and MIC90 values compared with ampicillin: methicillin-resistant isolates
Description: Forty-two isolates of Staphylococcus of varying species and strain type were collected from isolate collections. Biochemical testing including coagulase, latex agglutination testing for protein A, Vogues-Proskauer tests and resistance to polymyxin B were used to identify the species of Staphylococcus. All isolates were also screened for resistance to various antimicrobials commonly used for the treatment of infections. This was performed using the disk diffusion method and resistance standards as outlined by the CLSI. The following antimicrobials were used: amoxicillin-clavulanic acid (30 μg), cephalothin (30 μg), clindamycin (2 μg), enrofloxacin (5 μg), erythromycin (15 μg), gentamicin (10 μg), imipenem (10 μg), oxacillin (1 μg), penicillin G (10 units), tetracycline (30 μg), 1:19 trimethoprim-sulfamethoxazole (25 μg) and vancomycin (30 μg).
Minimum inhibitory concentration tests were performed according to CLSI Standards (CLSI 2012). 90 μL of one of the test compound solutions, or ampicillin, was added to the end column of a 96 well plate that contained 90 μL of CAMHB in each well. The solutions were then serially diluted across the row, leaving 2 columns for positive and negative controls (FIG. 2). A bacterial suspension was prepared by adding fresh colonies obtained from an overnight culture on Sheep Blood Agar (SBA) to a 9.1 g/L saline solution. This suspension was adjusted to a concentration of between 4×10^8 and 5×10^8 CFU/mL. Concentration of the suspension was determined by measuring optical density (OD) using a spectrophotometer at a wavelength of 600 nm where the correct concentration was determined to have an optical density of between 1.00 and 1.20. 1 mL of this suspension was added to 9 mL of saline before being added to all wells, excluding the negative control wells, in 10 μL volumes giving a final concentration of between 4×10^5 and 5×10^5 CFU/mL in each well. The tests were then incubated for 24 hours at 37° C. and then assessed both visually and using OD readings from a microplate reader at a wavelength of 600 nm. These tests were performed in duplicate but repeated if discrepancies were observed.
The minimum inhibitory concentration (MIC) was determined to be the lowest concentration of antibiotic that prevented growth of bacteria both visually and using OD readings. Direct statistical comparisons between the test compounds and ampicillin could not be performed in light of confidential information restrictions, such as restrictions on disclosure of information relating to the compound structure, such as molecular weight. Instead, MIC values were collated and used to determine the lowest concentration of each compound that was effective against 50% and 90% of isolates, referred to as the MIC50 and MIC90 respectively. These values as well as the range of MIC values were then used for direct comparisons between test compounds and for general comparisons with ampicillin.

[2] = tested on: Staphylococcus isolates (methicillin-sensitive and methicillin-resistant); assay: Minimum bactericidal concentration determination (Example 1); assay type: cell-based; details: for bactericidal activity (MBC testing): methicillin-sensitive and methicillin-resistant strains
Description: Following determination of the MIC using the 96 well MIC plate, a variation of the drop plate method was used to determine minimum bactericidal concentration (MBC) for each of the test compounds. These were analysed using samples taken from the MIC plate following incubation. For each compound, a 10 μL drop of each concentration equal to or higher than the MIC was pipetted onto Sheep Blood Agar in a clockwise manner (FIG. 3). Each concentration was pipetted in duplicate with duplicates being pipetted on an inner ring of drops. The plates were incubated at 37° C. overnight and assessed the following day for growth. The MBC was defined as the concentration at which 99.9% of colonies were eradicated, which was visually assessed by a lack of growth on the agar where the drop was placed. […] The MBC values for 50% and 90% of the isolates (MBC50 and MBC90) were calculated and assessed along with the MBC range in order to select compounds for further study.

[3] = tested on: bovine mastitis isolates; assay: Minimum inhibitory concentration assay (Example 3); assay type: cell-based
Text: Fifty-one dairy bovine mastitis isolates, encompassing a variety of bacterial species, were isolated from milk samples collected from dairy farms in rural South Australia by the University of Adelaide Ambulatory Clinic. Cellular morphology observed from Gram stains and catalase testing was used to differentiate Staphylococcus, Streptococcus and Corynebacterium species from Gram-negative species. Further biochemical testing including coagulase, Lancefield grouping, esculin hydrolysis and CAMP tests were used to identify the isolates to species level. Where biochemical test results were not definitive in identifying species, amplification and sequencing of the 16S ribosomal RNA gene was used to confirm the identity of the isolates.
Minimum inhibitory concentration tests were performed in the manner outlined by the CLSI (CLSI 2012). Test compounds were dispensed into a 96-well microtitre tray containing 90 μl of CAMHB in 90 μl volumes and serial diluted to obtain a concentration gradient ranging from 128 μg/ml to 0.25 μg/ml (see FIG. 24). For Streptococcus species, CAMHB was replaced with a CAMHB supplement with 4% lysed-sheep blood (4% LSB:CAMHB). 4% LSB:CAMHB was prepared by mixing 5 ml sheep blood to 5 ml milliQ water, and repeated freezing at −20° C. and thawing, followed by centrifuged for 20 min at 7000 rpm. 7 ml of the supernatant was removed and added to 93 mL of CAMB.
Bacterial suspensions were prepared by emulsifying fresh colonies obtained from an overnight culture on Sheep Blood Agar (SBA) in 4 mls of 9.1 g/l physiological saline to an optical density read at 600 nm (OD600nm) between 1.00 and 1.20. Standardised bacterial suspensions were diluted 1:10 in physiological saline and dispensed into all wells, excluding the negative control wells, in 10 μL volumes giving a final concentration of between 4×10^5 and 5×10^5 CFU/mL in each well. 96-well microtitre trays were incubated for 24 hours at 37° C. in 5% CO2 and then assessed both visually and using OD readings from a microplate reader at a wavelength of 600 nm. These tests were performed in duplicate and repeated if discrepancies in MIC values were observed between replicates.
The minimum inhibitory concentration (MIC) was determined to be the lowest concentration of antibiotic that prevented growth of bacteria both visually and using OD readings. MIC values were collated and used to determine the lowest concentration of each compound effective against 50% and 90% of isolates, known as the MIC50 and MIC90 respectively. These values as well as the range of MIC values were then used for direct comparisons between test compounds and for general comparisons with ampicillin.

[4] = dogs; cited from earlier work
[5] = humans; cited from earlier work
[6] = accidental inhalation and swallowing of about 1 mg/kg, human; cited from earlier work
[7] = Dilution in Cation Adjusted Mueller Hinton Broth; assay type: physicochemical
Description: For each of the five test compounds, a […] stock solution was created by dissolving 2.56 grams of compound in 10 ml of dimethyl sulfoxide (DMSO). The resulting solution was then aliquoted into 500 μL volumes and stored at −80° C. A […] stock solution of ampicillin was also created by dissolving 0.303 grams of ampicillin (Sigma A-0166) in 10 ml of DMSO. This solution was aliquoted and stored in the same manner as the five test compounds. When these compounds were required, a 256 μg/ml working solution was created by diluting 100 μl of stock solution (25.6 mg/ml) in 9.9 ml of Cation-Adjusted Mueller Hinton Broth (CAMHB)
LP4525 had the most consistent MIC values for all isolates, and this is evidenced by the small MIC range. LP4525 also has a lower MIC90 value compared to all compounds.

[8] = tested on: MRSA 9; assay: Microdilution time-kill assay; assay type: cell-based, Staphylococcus aureus; details: 48 hours
Description: Following assessment of MIC and MBC results, two compounds were chosen for analysis using microdilution time-kill assays, LP 1369 and LP 6315 and these were compared to ampicillin. Time-kill assays were performed according to the M26-A guidelines of the CLSI, with modifications. The test compounds and ampicillin were serial diluted in CAMHB across the rows of a 96 well plate and a bacterial suspension was prepared and added in the same manner as the MIC testing. […] The time points assessed were 0, 1, 2, 4, 8, 12, 24 and 48 hours after the addition of the bacterial suspension to the wells. Each test compound was tested in triplicate while ampicillin was tested in duplicate and this test was independently repeated. The bacterial strains used for the microdilution assays were chosen based on bactericidal activity evident during MBC testing. One strain from each of the categories of Staphylococcus in the isolate collection (methicillin-sensitive, methicillin resistant and coagulase negative) were selected as well as the ATCC reference strain for comparison. These strains were strains MSS 1, MSS 11, MRSA 9 and the ATCC 49775 reference strain.

[9] = tested on: ATCC 49775 reference strain; assay: Macrodilution time-kill assay; assay type: cell-based, Staphylococcus; details: 24 hours
Description: (§1) Due to the detection limit of the OD measurements, the time-kill assays were also performed in macrodilution. In 15 mL tubes, 9 mL volumes of the test compounds in CAMHB were prepared at one, four and eight times the MIC concentration and 9 mL volumes of ampicillin were prepared in CAMHB at one and four times the MIC. 1 mL of a 4 to 5×10^6 bacterial suspension (as prepared for MIC testing) was added to each of the tubes as well as a growth control tube containing only 9 mL of CAMHB. These tubes were incubated at 37° C. in an orbital shaker rotating at 100 rpm for 24 hours. At 0, 1, 4, 8, 12 and 24 hours after addition of the bacteria, 100 μL samples were removed from each tube and serial diluted in 9.1 g/L saline solution. The dilutions were then plated in duplicate onto plate count agar and incubated for 24 hours at 37° C. After incubation, viable counts were obtained from the number of colonies visible on the agar and these were used to calculate the number of CFU/mL at each time point. For the macrodilution time-kill analysis, only the ATCC 49775 reference strain and MRSA 9 were assessed in order to further investigate the antibacterial activity against methicillin-resistant strains. These macrodilution time-kill assays were independently repeated and bactericidal activity was defined as a ≥3 log decrease in the number of CFU/mL.

[10] = tested on: MRSA 9; assay: Macrodilution time-kill assay; assay type: cell-based, Staphylococcus aureus; details: 24 hours
Description: as §1

[11] = 51 Australian bovine mastitis isolates

Compound	MIC50 and MIC90 values compared with ampicillin [1]	strains against which bactericidal activity was exhibited more consistently [2]	bactericidal activity (MBC testing) [2]	MIC values (in words) [3]	antibacterial activity against the bovine mastitis isolates [3]	MIC90 [3, 11]	daily intake that leads to neurotoxic effects (myelin loss, axonal degeneration) [4]	acceptable daily intake (ADI) [5]	toxicity after accidental exposure [6]	MIC90 value and MIC range (in words) ([1]; all strains)	MIC90 values for each of the groups of mastitis pathogens (in words) ([3]; compared with the other compounds)	turbidity or precipitate upon dilution [7]	resulting growth after 48 hours [8]	bactericidal or bacteriostatic (>=3 log decrease in CFU/mL = bactericidal) ([9]; LP 6315: most concentrations)	decrease in the number of viable bacteria ([9]; all concentrations tested)	bactericidal or bacteriostatic (>=3 log decrease in CFU/mL = bactericidal) ([10]; LP 6315: most concentrations)	decrease in the number of viable bacteria ([10]; all concentrations tested)	MIC50 [3, 11]
CC[C@@H](C(=O)[C@@H](C)[C@@H](O)[C@H](C)[C@@H]1O[C@@H]([C@@H](CC)C(=O)O)CC[C@@H]1C)[C@H]1O[C@]2(C=C[C@@H](O)[C@]3(CC[C@@](C)([C@H]4CC[C@](O)(CC)[C@H](C)O4)O3)O2)[C@H](C)C[C@@H]1C [LP 1088, Salinomycin]	considerably lower than ampicillin	methicillin-sensitive strains	some bactericidal activity in lower concentrations	low MIC values	observed	2 µg/mL (≈ 2.66 µM)	more than 500 μg/kg	5 µg/kg	severe acute and chronic salinomycin toxicity									
CC[C@@]1([C@@H]2O[C@@H]([C@H]3O[C@@](O)(CO)[C@H](C)C[C@@H]3C)C[C@@H]2C)CC[C@H]([C@]2(C)CC[C@]3(C[C@H](O)[C@@H](C)[C@@H]([C@@H](C)[C@@H](OC)[C@H](C)C(=O)O)O3)O2)O1 [LP 9666, Monensin]	considerably lower than ampicillin				observed	128 µg/mL (≈ 191 µM)				high MIC90 value and broad MIC range	significantly higher	large amount of precipitate						
CC1(C)S[C@@H]2[C@H](NC(=O)[C@H](N)c3ccccc3)C(=O)N2[C@H]1C(=O)O [ampicillin]													comparable to the growth control	bactericidal	> 3 log10	bactericidal	> 3 log10	
Narasin [LP 4525]	considerably lower than ampicillin	methicillin-sensitive strains	some bactericidal activity in lower concentrations	low MIC values	observed	1 µg/mL												0.25 µg/mL
